The conditions of series [1]: measured to be as high as (Kanicky, 2002); cited from earlier work.
Series [2] can be described thus: Water solubility at neutral pH. The class given is physicochemical. Conditions: inferred from pKa. From the text:
Rudnic et al. point out that short chain fatty acids are ionized at neutral pH, giving them a […] solubility, and imply that long chain fatty acids are not ionized and, thus, are even less soluble in water. […] Further, medium to long chain (C8 to C22) fatty acids have very limited water solubility; when mixing with water these fatty acids tend to separate from water completely just as oil or fat do.

What is called pKa is the negative logarithm of the acid dissociation constant. As to `CCCCCCCC/C=C\CCCCCCCC(=O)O` [oleic acid], the pKa in series [1] is at most 9.85. Besides, the water solubility entry in series [2] is “essentially water insoluble”.

The values are drawn from US20090196861A1, “Biocompatible Latent Emulsifiers” (BIOAVAILABILITY, INC., priority 2005, published 2009).
